*1 amine or outer side, *2 acyl side, *3 side chain or, on linkers, in order; H or OH if unused. Where a SMILES comes first, the peptide text is derived from it. Bridges are numbered along the chain shown (N, C = ends). [ ]: non-standard residue; d: D form. The star is where a group is joined. ξ: configuration not given here. Phe(4-CONH2) = NC(=O)c1ccc(C[C@H](N)C(=O)O)cc1; Phe(4-COOH) = N[C@@H](Cc1ccc(C(=O)O)cc1)C(=O)O; Bip = N[C@@H](Cc1ccc(-c2ccccc2)cc1)C(=O)O; Phe(3-Me) = Cc1cccc(C[C@H](N)C(=O)O)c1; Ethylenediamine = C(CN[*:2])N[*:1]; Val(3-OH) = CC(C)(O)[C@H](N)C(=O)O; Ala(cPr) = N[C@@H](CC1CC1)C(=O)O; 4Pal = N[C@@H](Cc1ccncc1)C(=O)O; Cha = N[C@@H](CC1CCCCC1)C(=O)O; Cit = NC(=O)NCCC[C@H](N)C(=O)O; dCha = N[C@H](CC1CCCCC1)C(=O)O; Thr(3ξ) = CC(O)[C@H](N)C(=O)O; Carboxymethyl = O=C(O)C*; Orn = NCCC[C@H](N)C(=O)O; Dab = NCC[C@H](N)C(=O)O; Dap = NC[C@H](N)C(=O)O
What follows are compounds tested against T1, human PD-1 / PD-L1-Ig binding on Jurkat cell line over-expressing human PD-1 (Jurkat-PD-1) (Homo sapiens, UniProt Q15116) (assay: Jurkat-PD-1 Cell Binding High-Content Screening Assay (CBA)). Conditions: Jurkat-PD-1 cells, PE-labeled PD-L1-Ig 20 nM final; read-out: Jurkat HPD1_PDL1 IC50.
T1 construct: expressed in transfected cells; host or cells: Jurkat
Type: cell-based
Summary of the method: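 PE-PD-L1-Ig 20 nM final; cells in DMEM/10% FCS; cpd pre-incubation 2 h, 37° C; ligand 1 h; PFA fix + Hoechst 33342; high-content imaging read-out.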

T1 sequence (Q15116 25-288): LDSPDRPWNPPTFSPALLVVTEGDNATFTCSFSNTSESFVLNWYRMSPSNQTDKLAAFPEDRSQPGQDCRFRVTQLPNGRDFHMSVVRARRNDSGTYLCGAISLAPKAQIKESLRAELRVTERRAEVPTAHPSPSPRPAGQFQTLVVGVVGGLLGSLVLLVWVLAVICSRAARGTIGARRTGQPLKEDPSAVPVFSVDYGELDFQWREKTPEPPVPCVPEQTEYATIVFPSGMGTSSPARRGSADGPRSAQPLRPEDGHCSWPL

| Compound | IC50 |
| --- | --- |
| CC[C@H](C)[C@@H]1NC(=O)[C@H](Cc2ccc(-c3ccccc3)cc2)NC(=O)[C@H](C(C)C)NC(=O)[C@H](Cc2c[nH]c3ccccc23)NC(=O)[C@H](CC(=O)O)NC(=O)[C@H](Cc2ccc(O)cc2)NC(=O)[C@H](CC(N)=O)NC(=O)CSC[C@@H](C(=O)N[C@@H](C)C(N)=O)NC(=O)[C@H]([C@@H](C)O)NC(=O)[C@H](C(C)C)NC(=O)[C@H](CC2CCCCC2)NC(=O)[C@H](CCN)NC(=O)[C@@H](CC(C)C)NC(=O)[C@H](CCCN)NC1=O [Compound 1163] ({CH2CO}-NYDWV[Bip]I[Orn][dL][Dab][Cha]VTCA-NH2; thioether N-14) | 26.1 nM |
| CC(C)C[C@H]1NC(=O)[C@H](CCCN)NC(=O)[C@H](CCCNC(N)=O)NC(=O)[C@H](Cc2ccc(-c3ccccc3)cc2)NC(=O)[C@H](CC2CC2)NC(=O)[C@H](Cc2c[nH]c3ccccc23)NC(=O)[C@H](CC(=O)O)NC(=O)[C@H](Cc2ccc(OCC(=O)O)cc2)NC(=O)[C@H](CN)NC(=O)CSC[C@@H](C(=O)N[C@@H](C)C(N)=O)NC(=O)[C@H]([C@@H](C)O)NC(=O)[C@H](C(C)C)NC(=O)[C@H](CC2CCCCC2)NC(=O)[C@H](CCN)NC1=O [Compound 1354] ({CH2CO}-[Dap]Y(Carboxymethyl)DW[Ala(cPr)][Bip][Cit][Orn][dL][Dab][Cha]VTCA-NH2; thioether N-14) | 13.9 nM |
| CC[C@H](C)[C@@H]1NC(=O)[C@H](Cc2ccc(-c3ccccc3)cc2)NC(=O)[C@H](C(C)C)NC(=O)[C@H](Cc2c[nH]c3ccccc23)NC(=O)[C@H](CC(=O)O)NC(=O)[C@H](Cc2ccc(O)cc2)NC(=O)[C@H](CC(N)=O)NC(=O)CSC[C@@H](C(=O)N[C@@H](C)C(N)=O)NC(=O)[C@H]([C@@H](C)O)NC(=O)[C@H](C(C)C)NC(=O)[C@H](CC(C)C)NC(=O)[C@H](CCN)NC(=O)[C@@H](CC(C)C)NC(=O)[C@H](CCCN)NC1=O [Compound 1038] ({CH2CO}-NYDWV[Bip]I[Orn][dL][Dab]LVTCA-NH2; thioether N-14) | 7 nM |
| Cc1cccc(C[C@@H]2NC(=O)[C@H](CC(=O)O)NC(=O)[C@H](Cc3ccc(OCC(=O)O)cc3)NC(=O)[C@H](CN)NC(=O)CSC[C@@H](C(=O)N[C@@H](C)C(N)=O)NC(=O)[C@H]([C@@H](C)O)NC(=O)[C@H](C(C)C)NC(=O)[C@H](CC3CCCCC3)NC(=O)[C@H](CCN)NC(=O)[C@@H](CC(C)C)NC(=O)[C@H](CCCN)NC(=O)[C@H](CCCN)NC(=O)[C@H](Cc3ccc(-c4ccccc4)cc3)NC(=O)[C@H](C(C)C)NC2=O)c1 [Compound 1311] ({CH2CO}-[Dap]Y(Carboxymethyl)D[Phe(3-Me)]V[Bip][Orn][Orn][dL][Dab][Cha]VTCA-NH2; thioether N-14) | 16 nM |

Further lines, results first:

| IC50 | Compound |
| --- | --- |
| 633 nM | CC(C)C[C@H]1NC(=O)[C@H](CCCN)NC(=O)[C@H](CCC(=O)O)NC(=O)[C@H](Cc2ccc(-c3ccccc3)cc2)NC(=O)[C@H](C(C)C)NC(=O)[C@H](Cc2c[nH]c3ccccc23)NC(=O)[C@H](CC(=O)O)NC(=O)[C@H](Cc2ccc(OCC(=O)O)cc2)NC(=O)[C@H](Cc2ccc(OCC(=O)O)cc2)NC(=O)CSC[C@@H](C(=O)N[C@@H](C)C(N)=O)NC(=O)[C@H]([C@@H](C)O)NC(=O)[C@H](C(C)C)NC(=O)[C@H](Cc2ccc(O)cc2)NC(=O)[C@H](CCN)NC1=O [Compound 1688] ({CH2CO}-Y(Carboxymethyl)Y(Carboxymethyl)DWV[Bip]E[Orn][dL][Dab]YVTCA-NH2; thioether N-14) |
| 5.9 nM | CC(C)C[C@@H]1NC(=O)[C@H](Cc2c[nH]c3ccccc23)NC(=O)[C@H](CC(=O)O)NC(=O)[C@H](Cc2ccc(OCC(=O)O)cc2)NC(=O)[C@H](CN)NC(=O)CSC[C@@H](C(=O)NCC(N)=O)NC(=O)[C@H](CO)NC(=O)[C@H](C(C)C)NC(=O)[C@H](CC2CCCCC2)NC(=O)[C@H](CCN)NC(=O)[C@@H](CC(C)C)NC(=O)[C@H](CCCN)NC(=O)[C@H](C(C)C)NC(=O)[C@H](Cc2ccc(-c3ccccc3)cc2)NC1=O [Compound 1403] ({CH2CO}-[Dap]Y(Carboxymethyl)DWL[Bip]V[Orn][dL][Dab][Cha]VSCG-NH2; thioether N-14) |
| 6.2 nM | COc1ccc(C[C@@H]2NC(=O)[C@H](C(C)O)NC(=O)CSC[C@@H](C(=O)N[C@@H](CCN)C(N)=O)NC(=O)[C@H](Cc3c[nH]cn3)NC(=O)[C@H](C(C)(C)O)NC(=O)[C@H](CC3CCCCC3)NC(=O)[C@H](CCN)NC(=O)[C@@H](CC(C)C)NC(=O)[C@H](CCCN)NC(=O)[C@H](Cc3ccc(OCC(=O)O)cc3)NC(=O)[C@H](Cc3ccc(-c4ccccc4)cc3)NC(=O)[C@H](Cc3ccc(OCC(=O)O)cc3)NC(=O)[C@H](Cc3cccc(C)c3)NC(=O)[C@H](CC(=O)O)NC2=O)cc1 (stereo partly drawn) [Compound 2674] ({CH2CO}-[Thr(3ξ)]Y(Me)D[Phe(3-Me)]Y(Carboxymethyl)[Bip]Y(Carboxymethyl)[Orn][dL][Dab][Cha][Val(3-OH)]HC[Dab]-NH2; thioether N-14) |
| 15.6 nM | CC(C)[C@@H]1NC(=O)[C@H](Cc2c[nH]c3ccccc23)NC(=O)[C@H](CC(=O)O)NC(=O)[C@H](Cc2ccc(C(=O)O)cc2)NC(=O)[C@H](Cc2ccncc2)NC(=O)CSC[C@@H](C(=O)N[C@@H](C)C(N)=O)NC(=O)[C@H]([C@@H](C)O)NC(=O)[C@H](C(C)C)NC(=O)[C@H](CC2CCCCC2)NC(=O)[C@H](CCN)NC(=O)[C@@H](CC2CCCCC2)NC(=O)[C@H](CCCN)NC(=O)[C@H](C(C)C)NC(=O)[C@H](Cc2ccc(-c3ccccc3)cc2)NC1=O [Compound 1632] ({CH2CO}-[4Pal][Phe(4-COOH)]DWV[Bip]V[Orn][dCha][Dab][Cha]VTCA-NH2; thioether N-14) |
| 11.6 nM | Cc1cccc(C[C@@H]2NC(=O)[C@H](CC(=O)O)NC(=O)[C@H](Cc3ccc(OCC(=O)O)cc3)NC(=O)[C@H](C(C)O)NC(=O)CSC[C@@H](C(=O)N[C@@H](CO)C(=O)NCCN)NC(=O)[C@H](C(C)O)NC(=O)[C@H](C(C)(C)O)NC(=O)[C@H](CC3CCCCC3)NC(=O)[C@H](CCN)NC(=O)[C@@H](CC(C)C)NC(=O)[C@H](CCCN)NC(=O)[C@H](Cc3ccc(O)cc3)NC(=O)[C@H](Cc3ccc(-c4ccccc4)cc3)NC(=O)[C@H](Cc3ccc(C(N)=O)cc3)NC2=O)c1 (stereo partly drawn) [Compound 2663] ({CH2CO}-[Thr(3ξ)]Y(Carboxymethyl)D[Phe(3-Me)][Phe(4-CONH2)][Bip]Y[Orn][dL][Dab][Cha][Val(3-OH)][Thr(3ξ)]CS-Ethylenediamine; thioether N-14) |
| 27 nM | CC(C)C[C@H]1NC(=O)[C@H](CCCN)NC(=O)[C@H](C(C)C)NC(=O)[C@H](Cc2ccc(-c3ccccc3)cc2)NC(=O)[C@H](C(C)C)NC(=O)[C@H](Cc2c[nH]c3ccccc23)NC(=O)[C@H](CC(=O)O)NC(=O)[C@H](Cc2ccc(C(=O)O)cc2)NC(=O)[C@H](Cc2ccncc2)NC(=O)CSC[C@@H](C(=O)N[C@@H](C)C(N)=O)NC(=O)[C@H]([C@@H](C)O)NC(=O)[C@H](C(C)C)NC(=O)[C@H](CC2CCCCC2)NC(=O)[C@H](CCN)NC1=O [Compound 1689] |
